The source of these data is PubChem BioAssay AID218 (DTP/NCI, 2004).

Where “and” joins values, the source holds several entries; their conditions need not be identical. Identical values can stand only once. Starred links: 1 amine or outer side, 2 acyl side, 3 side chain; linkers in the order of their positions; H or OH if unused. Positions of bridges follow the written chain, without caps; N, C: chain ends. Non-standard residues stand in square brackets, D forms with d. Residues, ends and D or L forms follow the SMILES beside them. Chains are numbered I, II in the order given. Actinocin(9to1) = Cc1c2oc3c(C)ccc(C(=O)[*:1])c3nc-2c(C(=O)[*:2])c(N)c1=O; aThr = C[C@H](O)[C@H](N)C(=O)O; NMeV = CN[C@H](C(=O)O)C(C)C; Sar = CNCC(=O)O

The subject of this assay is C57BL/6 mice, Adenocarcinoma 755 sc, tumor weight T/C. In words: NCI In Vivo Anticancer Drug Screen. Data for tumor model Adenocarcinoma 755 (subcutaneous) in C57BL/6 mice. The following applies: endpoint: mean tumor weight, higher = larger tumour. How it is done: The antitumor activity of compounds was measured in mice bearing transplantable tumors. Survival or tumor size were measured and the results are expressed as the measurement made in the treated group (T) divided by the measurement made in the vehicle treated control group (C). The tumor model used in this assay is Adenocarcinoma 755 (subcutaneous) in C57BL/6 mice

Setting [1] is: dose: 1.5 mg/kg/injection, schedule: Q01DX011 (ip), vehicle: saline.
The mark [2] stands for this setting: dose: 75.0 mg/kg/injection, schedule: Q01DX011 (ip), vehicle: saline.

With `Cn1cnc([N+](=O)[O-])c1Sc1nc(N)nc2nc[nH]c12`, the T/C (as a rule, the result in the treated group divided by that in the control group, in per cent) (dose: 5.0 mg/kg/injection, schedule: Q01DX011 (oral), vehicle: saline) is 2 % of control.

On to `NNC(=O)c1nsnc1NC(N)=O`, for which the T/C was 109 % of control (dose: 6.0 mg/kg/injection, schedule: Q01DX011 (ip), vehicle: carboxymethylcellulose (CMC)); 107 % of control (dose: 11.0 mg/kg/injection, schedule: Q01DX011 (ip), vehicle: carboxymethylcellulose (CMC)); 99 % of control (dose: 22.0 mg/kg/injection, schedule: Q01DX011 (ip), vehicle: carboxymethylcellulose (CMC)).

Take `CCCCOC(=O)C1(N)CCCC1`: the T/C is, setting by setting: (dose: 28.0 mg/kg/injection, schedule: Q01DX011 (ip), vehicle: saline) 52 % of control; (dose: 56.0 mg/kg/injection, schedule: Q01DX011 (ip), vehicle: saline) 24 % of control.

As to `CC(C)C(=O)OCC1OC(n2cnc3c(=S)nc(N)[nH]c32)C(OC(=O)C(C)C)C1OC(=O)C(C)C` (stereo not given), the T/C under setting [1] is 68 % of control and the T/C (dose: 3.0 mg/kg/injection, schedule: Q01DX011 (ip), vehicle: saline) is 25 % of control.

Regarding `O=c1[nH]c(=O)c2n[nH]nc2[nH]1`, the T/C is 154 % of control under setting [2] and 115 % of control (dose: 150.0 mg/kg/injection, schedule: Q01DX011 (ip), vehicle: saline).

With `NC(=S)N/N=C/c1ccc(N)cc1`, the T/C is 86 % of control (dose: 35.0 mg/kg/injection, schedule: Q02DX006 (ip), vehicle: other); 85 % of control (dose: 40.0 mg/kg/injection, schedule: Q02DX006 (ip), vehicle: other); 87 % of control (dose: 50.0 mg/kg/injection, schedule: Q02DX006 (ip), vehicle: other); 70 % of control (dose: 60.0 mg/kg/injection, schedule: Q02DX006 (ip), vehicle: other); 77 % of control (dose: 70.0 mg/kg/injection, schedule: Q02DX006 (ip), vehicle: other).

As for `CCCCNc1nc(N(C)C)nc2nc[nH]c12`, the T/C (dose: 37.0 mg/kg/injection, schedule: Q01DX011 (ip), vehicle: saline) is 80 % of control; the T/C under setting [2] was 29 % of control; the T/C (dose: 90.0 mg/kg/injection, schedule: Q01DX011 (ip), vehicle: saline) is 56 % of control; the T/C (dose: 125.0 mg/kg/injection, schedule: Q01DX011 (ip), vehicle: saline) is 47 % of control.

As for `Nc1nc(F)nc2c1ncn2C1OC(CO)C(O)C1O` (stereo not given), the T/C (dose: 2.0 mg/kg/injection, schedule: Q01DX011 (ip), vehicle: carboxymethylcellulose (CMC)) was 87 % of control.

Turning to `CN(Cc1cnc2nc(N)nc(N)c2n1)c1ccc(C(=O)N[C@@H](CCC(=O)O)C(=O)O)cc1`, the T/C (dose: 0.75 mg/kg/injection, schedule: Q01DX011 (ip), vehicle: saline) is 74 % of control; the T/C (dose: 1.0 mg/kg/injection, schedule: Q01DX011 (ip), vehicle: saline) is 105 % of control; the T/C under setting [1] was 45 % of control; the T/C (dose: 2.0 mg/kg/injection, schedule: Q01DX011 (ip), vehicle: saline) was 87 % of control.

As for `O=c1[nH]c(=O)n(C2CC(O)C(CO)O2)cc1C(F)(F)F` (stereo not given), the T/C runs as follows: (dose: 12.5 mg/kg/injection, schedule: Q01DX011 (ip), vehicle: saline) 81 % of control; (dose: 25.0 mg/kg/injection, schedule: Q01DX011 (ip), vehicle: saline) 52 % of control; (dose: 50.0 mg/kg/injection, schedule: Q01DX011 (ip), vehicle: saline) 27 % of control; (dose: 100.0 mg/kg/injection, schedule: Q01DX011 (ip), vehicle: saline) 27 % of control.

Take `CN1CC(=O)N=C1N`: the T/C (dose: 1000.0 mg/kg/injection, schedule: Q01DX011 (ip), vehicle: saline) was 121 % of control.

With `Cc1c2oc3c(C)ccc(C(=O)N[C@@H]4C(=O)N[C@H](C(C)C)C(=O)N5CCC[C@H]5C(=O)N(C)CC(=O)N(C)[C@@H](C(C)C)C(=O)O[C@H]4C)c3nc-2c(C(=O)N[C@@H]2C(=O)N[C@H](C(C)C)C(=O)N3CCC[C@H]3C(=O)N(C)CC(=O)N(C)[C@@H](C(C)C)C(=O)O[C@H]2C)c(N)c1=O` (I: [aThr][dV]P[Sar][NMeV] / II: [aThr][dV]P[Sar][NMeV]; ester I:1-I:C, II:1-II:C; linker I:N-II:N via Actinocin(9to1)), the T/C (dose: 0.03 mg/kg/injection, schedule: Q01DX011 (ip), vehicle: saline) is 3 % of control.

Take `C[N+](C)(C)c1ncnc2nc[nH]c12`: the T/C (dose: 1.25 mg/kg/injection, schedule: Q#A X022 (ip), vehicle: saline) was 95 % of control; the T/C (dose: 2.5 mg/kg/injection, schedule: Q01DX011 (ip), vehicle: saline) is 109 % of control; the T/C (dose: 2.5 mg/kg/injection, schedule: Q01DX011 (sc), vehicle: saline) is 56 % of control; the T/C (dose: 2.5 mg/kg/injection, schedule: Q#A X022 (ip), vehicle: saline) is 93 % of control; the T/C (dose: 5.0 mg/kg/injection, schedule: Q01DX011 (ip), vehicle: saline) was 52 % of control; the T/C (dose: 5.0 mg/kg/injection, schedule: Q01DX011 (sc), vehicle: saline) was 34 % of control. Besides, the T/C (dose: 5.0 mg/kg/injection, schedule: Q#A X022 (ip), vehicle: saline) is 40 % of control; the T/C (dose: 7.5 mg/kg/injection, schedule: Q03DX004 (ip), vehicle: saline) is 77 % of control; the T/C (dose: 10.0 mg/kg/injection, schedule: Q01DX006 (iv), vehicle: saline) is 50 % of control; the T/C (dose: 10.0 mg/kg/injection, schedule: Q01DX011 (ip), vehicle: saline) is 12 % of control and 18 % of control; the T/C (dose: 10.0 mg/kg/injection, schedule: Q01DX011 (oral), vehicle: saline) was 58 % of control; the T/C (dose: 10.0 mg/kg/injection, schedule: Q01DX011 (sc), vehicle: saline) was 34 % of control. Further, the T/C by setting is: (dose: 10.0 mg/kg/injection, schedule: Q02DX006 (im), vehicle: saline) 54 % of control; (dose: 10.0 mg/kg/injection, schedule: Q#A X022 (ip), vehicle: saline) 13 % of control and 18 % of control; (dose: 15.0 mg/kg/injection, schedule: Q03DX004 (ip), vehicle: saline) 76 % of control; (dose: 20.0 mg/kg/injection, schedule: Q01DX011 (ip), vehicle: saline) 6 % of control and 11 % of control and 18 % of control; (dose: 20.0 mg/kg/injection, schedule: Q01DX011 (oral), vehicle: saline) 43 % of control; (dose: 20.0 mg/kg/injection, schedule: Q01DX011 (sc), vehicle: saline) 8 % of control and 16 % of control. In addition, the T/C (dose: 20.0 mg/kg/injection, schedule: Q02DX006 (im), vehicle: saline) was 50 % of control; the T/C (dose: 20.0 mg/kg/injection, schedule: Q#A X022 (ip), vehicle: saline) was 8 % of control; the T/C (dose: 30.0 mg/kg/injection, schedule: Q03DX004 (ip), vehicle: saline) was 32 % of control; the T/C (dose: 40.0 mg/kg/injection, schedule: Q01DX006 (iv), vehicle: saline) is 42 % of control; the T/C (dose: 40.0 mg/kg/injection, schedule: Q01DX011 (ip), vehicle: saline) is 6 % of control and 9 % of control; the T/C (dose: 40.0 mg/kg/injection, schedule: Q01DX011 (oral), vehicle: saline) is 12 % of control and 18 % of control. Besides, the T/C reads like this: (dose: 40.0 mg/kg/injection, schedule: Q01DX011 (sc), vehicle: saline) 7 % of control; (dose: 40.0 mg/kg/injection, schedule: Q02DX006 (im), vehicle: saline) 39 % of control; (dose: 60.0 mg/kg/injection, schedule: Q03DX004 (ip), vehicle: saline) 16 % of control and 18 % of control; (dose: 75.0 mg/kg/injection, schedule: Q01DX001 (ip), vehicle: saline) 76 % of control and 85 % of control; (dose: 80.0 mg/kg/injection, schedule: Q01DX006 (iv), vehicle: saline) 15 % of control; (dose: 80.0 mg/kg/injection, schedule: Q01DX011 (ip), vehicle: saline) 5 % of control. Also, the T/C is 5 % of control and 10 % of control and 17 % of control (dose: 80.0 mg/kg/injection, schedule: Q01DX011 (oral), vehicle: saline); 5 % of control (dose: 80.0 mg/kg/injection, schedule: Q01DX011 (sc), vehicle: saline); 20 % of control (dose: 80.0 mg/kg/injection, schedule: Q02DX006 (im), vehicle: saline); 10 % of control (dose: 120.0 mg/kg/injection, schedule: Q03DX004 (ip), vehicle: saline); 47 % of control and 48 % of control (dose: 150.0 mg/kg/injection, schedule: Q01DX001 (ip), vehicle: saline); 8 % of control (dose: 160.0 mg/kg/injection, schedule: Q01DX011 (oral), vehicle: saline). Besides, the T/C (dose: 160.0 mg/kg/injection, schedule: Q01DX011 (sc), vehicle: saline) was 4 % of control; the T/C (dose: 300.0 mg/kg/injection, schedule: Q01DX001 (ip), vehicle: saline) was 33 % of control and 40 % of control; the T/C (dose: 320.0 mg/kg/injection, schedule: Q01DX011 (oral), vehicle: saline) was 5 % of control.

Turning to `Clc1ncnc2nc[nH]c12`, the T/C (dose: 37.5 mg/kg/injection, schedule: Q01DX011 (ip), vehicle: saline) is 1 % of control.
